The record followed here is patent US20100298377A1, “NOVEL SUBSTITUTED INDAZOLES, THE PREPARATION THEREOF AND USE OF SAME IN THERAPEUTICS” (SANOFI-AVENTIS, priority 2007, published 2010).

Counter-ions that a name gives are not always drawn.

The target of one data set is AKT1 (Homo sapiens, UniProt P31749, S473D). The experiment in a line: Determination of the IC50 for AKT1 (HTRF). Format: biochemical. Conditions: AKT1 without PH domain, activated by PDK1. Here is the method: Determination of the IC50 for AKT1
Chain of AKT1 (P31749 118-480 S473D limits assumed): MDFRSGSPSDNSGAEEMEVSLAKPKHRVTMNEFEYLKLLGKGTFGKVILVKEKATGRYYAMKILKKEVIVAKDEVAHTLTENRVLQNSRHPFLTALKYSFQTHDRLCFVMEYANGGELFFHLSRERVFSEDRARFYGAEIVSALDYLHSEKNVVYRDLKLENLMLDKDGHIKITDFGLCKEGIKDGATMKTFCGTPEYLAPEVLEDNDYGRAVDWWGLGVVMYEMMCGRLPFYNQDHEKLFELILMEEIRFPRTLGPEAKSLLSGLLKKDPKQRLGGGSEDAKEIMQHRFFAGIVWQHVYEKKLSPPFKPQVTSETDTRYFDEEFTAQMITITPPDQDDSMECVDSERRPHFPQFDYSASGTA
The inhibitory potential of the compounds is evaluated by HTRF, a time-resolved fluorescence technique based on non-radiative energy transfer (FRET). […] This phosphorylation allows the kinase activity of AKT1 to be activated.
Starting with a 10 mM solution of inhibitors, 3 μl are taken and placed in a 96-well polypropylene plate containing 27 μl of 100% DMSO. The various test compounds are diluted in cascade by taking 15 μl of compound, to which are added 30 μl of 100% DMSO.
The various reaction components are added in the following manner:
Next, 10 μl of the inhibitor solution are added. Finally, the reaction is initiated by adding 10 μl of a solution containing both 100 μM of ATP and 10 μM of biotinylated peptide. The sequence of this peptide is as follows: biot-[…] (reference Neosystem SP000560). The plate is then covered with a plastic film, agitated and finally incubated at RT for 30 minutes. […] After incubation overnight at 4° C., the plate is read using an Ultra evolution spectrophotometer from Tecan. […] All the tests are performed in duplicate and the mean of the two tests is calculated.
For each point, a delta F is calculated in the following manner:
(§1) R(Ratio)=counts665 nm/counts620 nm
ΔF % is calculated by the Tecan Ultra Evolution machine.
(In general: Time-resolved FRET reads energy transfer from a long-lived donor to a nearby acceptor.)

Data set [1] addresses T1, Human S6K1 (24-421) T412E protein (Homo sapiens, UniProt P23443, T412E).
T1 construct: Human S6K1 (24-421) T412E protein; made in house; host or cells: Sf21 insect cells
In words: Determination of the IC50 for S6K1 (HTRF substrate phosphorylation test). Conditions: S6K1 activated by PDK1, ATP 30 μM. It counts as biochemical. Here is the method:
Determination of the IC50 for S6K1
The inhibitory potential of the compounds for S6K1 is evaluated in an enzymatic test of phosphorylation of substrate in HTRF (Homogenous Time-Resolved Fluorescence) format. Human S6K1 (24-421) T412E protein is expressed in sf21 cells and purified by chromatography on a nickel chelate column. It is activated by PDK1.
The test comprises two steps, both performed at RT. The phosphorylation reaction takes place during the first step and the revelation step is performed during the second. […] The final concentrations of compounds thus obtained during the incubation period range from 10 μM to 0.17 nM and the concentration of enzyme is 2 nM. After incubation for 20 minutes, the reaction is stopped and the revelation initiated by addition of 30 μl of a mixture of streptavidin XL 665 Xlent, ref. 611SAXLB Cis bio international, and a europium cryptate-coupled anti-phospho-GSK3 antibody, ref. 64CUSKAZ Cis bio international, dissolved in the revelation buffer (HEPES/NaOH 166.7 mM, EDTA 221.7 mM, KF 667.7 mM, BSA 0.167%, pH 7.0). The reaction takes place in a black half-well plate ref. 3694 Costar.
A mixture of the reaction medium after each addition of reagent is obtained by agitation for a few minutes at 700-1000 rpm on a Heidolph Titramax 100 machine. The reading is taken on a TECAN Ultra Evolution machine after at least one night and up to 3 nights at 4° C. The reading settings are as follows: excitation wavelength 320 nm, emission wavelengths 620 and 665 nm, lag time 150 μs, integration time 500 μs.
For each point, the ΔF % is calculated as follows:
as §1
The IC50 values are calculated by means of the XLfit4 205 equation.

T1 sequence (P23443 24-421 T412E): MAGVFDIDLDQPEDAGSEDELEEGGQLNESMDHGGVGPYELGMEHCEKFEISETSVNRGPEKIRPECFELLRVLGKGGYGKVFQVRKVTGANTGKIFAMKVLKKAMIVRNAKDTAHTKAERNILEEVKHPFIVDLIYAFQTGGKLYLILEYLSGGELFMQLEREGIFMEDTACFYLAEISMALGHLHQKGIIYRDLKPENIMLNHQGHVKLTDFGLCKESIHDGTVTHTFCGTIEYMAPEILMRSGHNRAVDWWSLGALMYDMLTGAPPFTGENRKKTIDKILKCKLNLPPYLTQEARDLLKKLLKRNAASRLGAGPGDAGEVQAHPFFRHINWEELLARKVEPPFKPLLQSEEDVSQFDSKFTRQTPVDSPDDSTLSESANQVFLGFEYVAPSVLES

`CN1CCCCC1C(NC(=O)Nc1ccc2[nH]nc(C#Cc3cccnc3)c2c1)c1ccccc1` (as salt: fumaric acid salt) [Ex 25, 1-[(1-Methylpiperid-2-yl)(phenyl)methyl]-3-[3-(pyrid-3-ylethynyl)-1H-indazol-5-yl]urea((S,2S),(R,2R))] registered a melting point of 230 °C.
`O=C(Nc1ccc2[nH]nc(C#Cc3ccccc3)c2c1)N[C@@H](c1ccc(Cl)c(Cl)c1)[C@@H]1CCCCN1` (as salt: fumaric acid salt) [Ex 26, 1-{(S)-(3,4-Dichlorophenyl)[(2S)-piperid-2-yl]methyl}-3-[3-(phenylethynyl)-1H-indazol-5-yl]urea]: the melting point worked out at 160 °C.
As to `CN1CCCCC1C(NC(=O)Nc1ccc2[nH]nc(CCc3ccccc3)c2c1)c1ccccc1` (as salt: fumaric acid salt) [Ex 27, 1-[(1-Methylpiperid-2-yl)(phenyl)methyl]-3-[3-(2-phenylethyl)-1H-indazol-5-yl]urea((S,2S),(R,2R))], the melting point was 205 °C.
For `CN1CCCCC1C(c1ccccc1)N(C)C(=O)Nc1ccc2[nH]ncc2c1` (as salt: fumaric acid salt) [Ex 32, 3-(1H-Indazol-5-yl)-1-methyl-1-[(1-methylpiperid-2-yl)phenylmethyl]urea((S,2S),(R,2R))], the melting point is 194 °C.
Same read-out and setting: for `CN(C(=O)NC(c1ccccc1)C1CCCCN1C)c1ccc2[nH]ncc2c1` (as salt: fumaric acid salt) [Ex 33, 1-(1H-Indazol-5-yl)-1-methyl-3-[(1-methylpiperid-2-yl)(phenyl)methyl]urea((S,2S),(R,2R))] the value was 205 °C; for `O=C(Nc1ccc2[nH]ncc2c1)N[C@@H](c1cc(F)cc(Cl)c1)[C@@H]1CCCCN1` (as salt: hydrochloride) [Ex 3, 1-{(S)-(3-Chloro-5-fluorophenyl)[(2S)-piperid-2-yl]methyl}-3-(1H-indazol-5-yl)urea], 208 °C; for `CN1CCCCC1C(NC(=O)Nc1ccc2[nH]ncc2c1)c1cc(F)cc(Cl)c1` (stereo not shown) (as salt: hydrochloride) [Ex 11, 1-[(3-Chloro-5-fluorophenyl)(1-methylpiperid-2-yl)methyl]-3-(1H-indazol-5-yl)urea], 192 °C.
Same read-out and setting: to `Nc1n[nH]c2ccc(NC(=O)N[C@@H](c3ccc(Cl)c(Cl)c3)[C@@H]3CCCCN3)cc12` (as salt: hydrochloride) [Ex 29, 1-(3-Amino-1H-indazol-5-yl)-3-{(S)-(3,4-dichlorophenyl)[(2S)-piperid-2-yl]methyl}urea] belongs 214 °C; to `O=C(Nc1ccc2[nH]ncc2c1)OC(c1cc(Cl)cc(Cl)c1)C1CCCCN1` (as salt: hydrochloride) [Ex 34, (3,5-Dichlorophenyl)[piperid-2-yl]methyl 1H-indazol-5-ylcarbamate((S,2S),(R,2R))], 220 °C; to `O=C(Nc1ccc2[nH]ncc2c1)O[C@@H](c1cc(F)cc(Cl)c1)[C@@H]1CCCCN1` (as salt: hydrochloride) [Ex 35, (S)-(3-Chloro-5-fluorophenyl)[(2S)-piperid-2-yl]methyl 1H-indazol-5-ylcarbamate], 226 °C.
The same measure, in the same setting: to `CN1CCCCC1C(OC(=O)Nc1ccc2[nH]ncc2c1)c1cc(F)cc(Cl)c1` (stereo not shown) (as salt: hydrochloride) [Ex 36, (3-Chloro-5-fluorophenyl)(1-methylpiperid-2-yl)methyl 1H-indazol-5-ylcarbamate] belongs 172 °C; to `O=C(Nc1ccc2[nH]ncc2c1)O[C@@H](c1ccc(Cl)c(Cl)c1)[C@@H]1CCCCN1` (as salt: hydrochloride) [Ex 38b, (S)-(3,4-Dichlorophenyl)[(2S)-piperid-2-yl]methyl 1H-indazol-5-ylcarbamate], 194 °C.
As to `O=C(Nc1ccc2[nH]ncc2c1)N[C@@H](c1ccccc1)[C@@H]1CCCCN1` [Ex 8, 1-{(S)-(Phenyl)[(2S)-piperid-2-yl]methyl}-3-(1H-indazol-5-yl)urea], the melting point is 195 °C. Further, at AKT1, the IC50 is below 100 nM. In data set [1], this molecule came in with an IC50 of 500 to 2000 nM.
Take `O=C(Nc1ccc2[nH]ncc2c1)N[C@H](c1ccccc1)[C@H]1CCCCN1` [Ex 9, 1-{(R)-(Phenyl)[(2R)-piperid-2-yl]methyl}-3-(1H-indazol-5-yl)urea]: the melting point is 147 to 149 °C. At AKT1, this molecule displayed an IC50 of 100 to 500 nM. The molecule also yielded an IC50 in data set [1] of 500 to 2000 nM.
The molecule `C=CCN1CCCC[C@H]1[C@@H](NC(=O)Nc1ccc2[nH]ncc2c1)c1ccccc1` [Ex 10, 1-{(S)-(Phenyl)[(2S)-1-allylpiperid-2-yl]methyl}-3-(1H-indazol-5-yl)urea] returned a melting point of 195 °C. In addition, the IC50 on AKT1 fell in the range of 100 to 500 nM.
Regarding `Nc1n[nH]c2ccc(NC(=O)N[C@@H](c3ccc(Cl)c(Cl)c3)[C@@H]3CCCCN3)cc12` [Ex 29, 1-(3-Amino-1H-indazol-5-yl)-3-{(S)-(3,4-dichlorophenyl)[(2S)-piperid-2-yl]methyl}urea], the IC50 was below 100 nM against AKT1 and 500 to 2000 nM in data set [1].
For `O=C(Nc1ccc2[nH]ncc2c1)O[C@H](c1ccc(Cl)c(Cl)c1)[C@@H]1CCCCN1` [Ex 38c, (R)-(3,4-Dichlorophenyl)[(2S)-piperid-2-yl]methyl 1H-indazol-5-ylcarbamate], in that order: 100 to 500 nM and 100 to 500 nM.
For `O=C(Nc1ccc2[nH]ncc2c1)O[C@H](c1cc(F)cc(Cl)c1)[C@@H]1CCCCN1` [Ex 40, (R)-(3-Chloro-5-fluorophenyl)[(2S)-piperid-2-yl]methyl 1H-indazol-5-ylcarbamate], in that order: 500 to 2000 nM and 500 to 2000 nM.
Taken in the same sequence, the figures for `O=C(Nc1ccc2[nH]ncc2c1)O[C@@H](c1cccc(C(=O)NC2CCCCC2)c1)[C@@H]1CCCCN1` [Ex 47, (S)-(3-Cyclohexylcarbamoylphenyl)-(S)-piperid-2-ylmethyl (1H-Indazol-5-yl)carbamate] were below 100 nM and 100 to 500 nM.

As usually defined, the melting point is the temperature, or range, at which the solid turns liquid. For orientation: IC50 means the point on the concentration scale where inhibition reaches its midpoint. Low readings indicate greater potency in that assay, high ones weaker potency in that assay.
